# Assay results from PubChem BioAssay (NCI).
#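 Tested at 5 concentrations; 48 h exposure; 96-well plates; endpoints linearly interpolated, else capped at highest concentration. GI50 is the concentration that inhibits growth by half. Definition used: TGI = concentration required for complete inhibition of growth.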 Where a SMILES comes first, the peptide text is derived from it.
# Assays:
# Test in all cases: DTP human tumour cell line panel, 48 h
# SF-295 CNS = system: SF-295 CNS
# HOP-62 NSCLC = system: HOP-62 NSCLC
# SF-539 CNS = system: SF-539 CNS
# A498 renal = system: A498 renal
# A549 NSCLC = system: A549 NSCLC
# ACHN renal = system: ACHN renal
# IGROV1 ovarian = system: IGROV1 ovarian
# SK-MEL-2 melanoma = system: SK-MEL-2 melanoma
# MDA-MB-435 = system: MDA-MB-435
# SW-620 colon = system: SW-620 colon
Structure (SMILES),TGI (SF-295 CNS) [µM],TGI (HOP-62 NSCLC) [µM],TGI (SF-539 CNS) [µM],TGI (A498 renal) [µM],TGI (A549 NSCLC) [µM],TGI (ACHN renal) [µM],TGI (IGROV1 ovarian) [µM],TGI (SK-MEL-2 melanoma) [µM],TGI (MDA-MB-435) [µM],TGI (SW-620 colon) [µM],GI50 (SF-539 CNS) [µM],GI50 (A498 renal) [µM],GI50 (A549 NSCLC) [µM],GI50 (ACHN renal) [µM],GI50 (IGROV1 ovarian) [µM],GI50 (SK-MEL-2 melanoma) [µM]
Cc1cc2c(cc1Cl)SC(c1ccccc1O)NS2(=O)=O (stereo not drawn),> 100,> 100,> 100,> 100,> 100,> 100,> 100,> 100,> 100,42.5,,,,,,
COC(=O)[C@]12CSC[C@H]1C[C@H](c1cccc3ccccc13)N2,> 100,> 100,> 100,> 100,> 100,> 100,> 100,> 100,> 100,> 100,,,,,,
O=C1CC2CC(CC3(CO3)C2)C1F (stereo not drawn),> 100,> 100,,> 100,> 100,> 100,> 100,> 100,> 100,,,,,,,
O=C(CSSCC(=O)OCCS(=O)(=O)Nc1ccc(Br)cc1)OCCS(=O)(=O)Nc1ccc(Br)cc1,> 100,,32.8,39.8,> 100,82.8,88.7,79.6,,44.2,,,,,,
O=c1c(-c2ccccc2)c(SCCN2CCOCC2)n(-c2ccccc2)c(=S)n1-c1ccccc1,> 100,> 100,> 100,> 100,,> 100,> 100,> 100,> 100,> 100,,,,,,
COc1cc(/C=C2\N=C(c3ccccc3)N(c3nc4ccc(Sc5ccccc5)cc4[nH]3)C2=O)cc(OC)c1OC,90.1,> 100,,71.8,> 100,57.7,> 100,33,23,> 100,,,,,,
Cc1cc(=O)n2c3c(c4c(cc13)c(CN(C)C)cc(=O)n4C)OC2,> 72.7,> 100,24.2,> 100,> 55.1,39.1,41.9,41.6,> 58.2,> 82.3,,,,,,
Cn1c2cn[nH]c(=O)c2c2ccc3ccccc3c21,63.4,31.8,> 100,80,> 100,45.9,32.2,46.7,> 100,> 100,,,,,,
COc1ccc2c(c1)CCCc1c-2nc2ccccc2c1N,23.1,12.9,24.8,20.8,25.7,29,28.7,29.1,24.8,29,,,,,,
O=C(NC(Cc1ccc(Cl)cc1)C(=O)O)c1ccc(I)cc1 (stereo not drawn),> 100,> 100,> 100,> 100,> 100,,> 100,> 100,,> 100,,,,,,
COc1ccc(N=Nc2c(N)nn(C)c2N)cc1,> 100,> 100,> 100,> 100,> 100,> 100,> 100,> 100,,> 100,,,,,,
CCCCCCCCCCCCSC(=S)c1c(C)[nH]n(CCCCCCCCCCCC)c1=O,> 100,> 100,> 100,> 100,> 100,> 100,> 100,> 100,,> 100,,,,,,
O=C1CS(=O)(=O)C(c2cccc(Oc3ccccc3)c2)N1C1CC1 (stereo not drawn),> 100,,> 100,,> 100,80,,> 100,75.1,> 100,,,,,,
CN1NC(c2ccccc2)=C(C#N)C(=O)CC1c1ccc(F)cc1 (stereo not drawn),> 100,,,> 100,> 100,> 100,,> 100,,> 100,,,,,,
CCC(C)C(NC(=O)C(CC(C)C)NC(=O)CNC(=O)C(NC(=O)C1CCCN1C(=O)C(CC(C)C)NC(=O)C(N)Cc1ccccc1)C(C)CC)C(=O)NC(CC(C)C)C(N)=O (stereo not drawn) (H-FLPIGLIL-NH2; configuration not given here),> 75,> 75,> 75,> 75,> 75,> 75,> 75,> 75,> 75,> 75,,,,,,
Cc1ccc(C(=O)N/N=C(\N=Nc2ccccc2Cl)c2ccc(N(C)C)cc2)cc1,> 100,,> 100,,> 100,46.1,> 100,> 100,29.6,> 100,,,,,,
CC(C)(C)c1cc(-c2nc3ccc(N4CCN(CCO)CC4)cc3[nH]2)cc(C(C)(C)C)c1O,,,4.91,> 100,> 100,> 100,> 100,5.73,,,2.13,6.1,3.51,3.39,3.25,2.39
CCCCCCCCCCCCCCCCCC(=O)OCC1OC(OC)C(NC(=O)N(CCCl)N=O)C(O)C1O (stereo not drawn),32.6,> 100,24.2,,52.1,47.3,> 100,> 100,,47.8,,,,,,
CCC12C=CCN3CCC4(c5cc(C(c6ccc(OC)cc6)C6Cc7ccccc7N6)c(OC)cc5N(C)C4C(O)(C(=O)OC)C1O)C32 (stereo not drawn),> 100,90.1,78.4,80.3,> 100,> 100,51.2,68.8,80.4,> 100,,,,,,
CCN(CCO)CCNc1ccc(C)c2sc3ccccc3c(=O)c12,10.1,11,10.3,31.2,15.2,15,12.9,9.33,3.74,5.5,,,,,,
Cc1ccc2c3c1[C@@H]1O[C@@H]1c1cccc(c1-3)[C@@H]1O[C@H]21,31.4,32,,43.6,34.1,31,,33.7,31.4,,,,,,,
